The target in this assay is T1, human GnRH receptor (Homo sapiens, UniProt P30968).
T1 construct: expressed in transfected cells; host or cells: CHO (Chinese Hamster Ovary) cells, membrane fraction
T1 sequence (P30968 1-328): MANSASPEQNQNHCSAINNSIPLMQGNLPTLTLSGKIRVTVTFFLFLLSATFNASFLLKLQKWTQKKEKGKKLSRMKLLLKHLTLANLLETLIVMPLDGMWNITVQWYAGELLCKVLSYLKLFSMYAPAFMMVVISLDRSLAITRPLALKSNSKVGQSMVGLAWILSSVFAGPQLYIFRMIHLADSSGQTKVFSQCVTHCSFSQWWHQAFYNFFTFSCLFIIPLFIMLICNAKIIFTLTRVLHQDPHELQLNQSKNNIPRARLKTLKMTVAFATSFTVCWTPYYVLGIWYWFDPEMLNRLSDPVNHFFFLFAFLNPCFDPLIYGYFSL
The assay is described as follows: Determination of inhibitory rate of 125I-leuprorelin binding (membrane fraction of CHO cells expressing human GnRH receptors). Conditions: CHO cell membrane expressing human GnRH receptors, 25° C., 60 minutes, Hill plot. The method, then: (1)Preparation of ^125 I-leuprorelin:
Ten μl of 3×10^-4 M aqueous solution of leuprorelin and 10 μl of 0.01 mg/ml lactoperoxidase in 0.1M HEPES buffer (pH 7.4) were taken into a tube, to which was added 10 μl (37 MBq in 0.1 M HEPES buffer (pH7.4)) of an Na^125 I solution. The mixture was stirred, to which was added 10 μl of 0.001% H2O2, then reaction was allowed to proceed for 20 minutes at room temperature. To the reaction mixture was added 700 μl of a 0.05% TFA solution to cease the reaction. The product was purified by means of reversed phase HPLC. Conditions of HPLC are as follows. ^125 I-leuprorelin was eluted at a retention time of 26 to 27 minutes.
(2) Preparation of membrane fraction of CHO (Chinese Hamster Ovary) cells containing human GnRH receptors
CHO cells (10^9) expressing human GnRH receptors were suspended in a phosphate-buffered saline supplemented with 5 mM EDTA (ethylenediamine tetraacetate) (PBS-EDTA). […]
The reaction was allowed to proceed at 25° C. for 60 minutes. […] After completion of the filtration, radioactivity of the ^125 I-leuprorelin remaining on the filter paper was measured with a γ-counter.
By calculation of the following formula, the binding inhibitory rate (PMB, %) of each test compound was determined.
TB: Maximum binding radioactivity.
SB: Radioactivity obtained when a compound was added. […]

For orientation: IC50 means the point on the concentration scale where inhibition reaches its midpoint. Turning to `C=C(C)COc1ccc(-c2sc3c(c2CN(C)Cc2ccccc2)c(=O)c(C(=O)C(C)C)cn3Cc2c(F)cccc2F)cc1` [Example 3(4), 2-[4-(2-methyl-2-propen-1-yl-oxy)phenyl]-4,7-dihydro-7-(2,6-difluorobenzyl)-3-(N-benzyl-N-methylaminomethyl)-5-isobutyryl-4-oxothieno[2,3-b]pyridine], the 50% inhibitory concentration (IC50) came out at 10 nM.

The values above are taken from patent US6001850A, “Thienopyridine derivatives, their production and use” (Takeda Chemical Industries, Ltd., priority 1996, dated 1999).
